Results: patent US20220168307A1, “TREATMENT OF SMA” (Hoffmann-La Roche Inc., priority 2019, published 2022)
pIC50: −log10 of the molar value. Where “and” joins values, the source holds several entries; their conditions need not be identical. Equal entries are not always repeated. Entries after “also recorded” stand apart in the source; their conditions may differ.

Tests used:
CYP2C8 = molecular target: T1, CYP2C8 (Homo sapiens, UniProt P10632); assay: Time-dependent inhibition (IC50 shift) of CYP2C8 in human liver microsomes; settings: risdiplam up to 12.5 μM
T1 sequence (P10632 1-490): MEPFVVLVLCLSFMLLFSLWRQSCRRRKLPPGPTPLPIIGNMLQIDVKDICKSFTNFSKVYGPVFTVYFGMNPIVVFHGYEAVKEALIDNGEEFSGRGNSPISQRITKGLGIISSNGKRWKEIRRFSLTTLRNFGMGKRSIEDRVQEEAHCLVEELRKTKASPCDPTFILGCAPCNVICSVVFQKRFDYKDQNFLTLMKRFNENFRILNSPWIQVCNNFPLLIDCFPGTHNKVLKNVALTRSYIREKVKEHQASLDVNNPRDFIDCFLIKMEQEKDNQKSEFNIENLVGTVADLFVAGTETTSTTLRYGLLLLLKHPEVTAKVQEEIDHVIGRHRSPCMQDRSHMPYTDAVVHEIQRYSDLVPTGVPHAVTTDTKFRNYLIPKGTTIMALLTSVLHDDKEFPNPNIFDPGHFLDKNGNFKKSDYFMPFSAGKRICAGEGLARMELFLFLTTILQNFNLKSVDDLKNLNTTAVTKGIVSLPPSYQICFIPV
Method: (§1) Donors CMV negative for serology are unm
(§2) All incubations were conducted in duplicate.
(§3) % remaining=(C+I/C^−I)*100

CYP2D6 [1] = molecular target: T2, CYP2D6 (Homo sapiens, UniProt P10635); assay: Time-dependent inhibition (IC50 shift) of CYP2D6 in human liver microsomes; format: in vitro ADME; settings: risdiplam up to 12.5 μM
Method: as §1, §2, §3

CYP3A4 = CYP3A4 (Homo sapiens, UniProt P08684); assay: in vitro; settings: for % Remaining: duplicates; for pIC50: human, microsomes, 30 min pre-incubation
Method: as §1, §2, §3

[2] = Risdiplam treatment of patients with SMA: safety and exposure; format: in vivo, human
CYP2B6 = molecular target: T3, CYP2B6 (Homo sapiens, UniProt P20813); assay: in vitro; settings: pooled human liver microsomes, pH 7.4, probe bupropion
T3 sequence (P20813 1-491): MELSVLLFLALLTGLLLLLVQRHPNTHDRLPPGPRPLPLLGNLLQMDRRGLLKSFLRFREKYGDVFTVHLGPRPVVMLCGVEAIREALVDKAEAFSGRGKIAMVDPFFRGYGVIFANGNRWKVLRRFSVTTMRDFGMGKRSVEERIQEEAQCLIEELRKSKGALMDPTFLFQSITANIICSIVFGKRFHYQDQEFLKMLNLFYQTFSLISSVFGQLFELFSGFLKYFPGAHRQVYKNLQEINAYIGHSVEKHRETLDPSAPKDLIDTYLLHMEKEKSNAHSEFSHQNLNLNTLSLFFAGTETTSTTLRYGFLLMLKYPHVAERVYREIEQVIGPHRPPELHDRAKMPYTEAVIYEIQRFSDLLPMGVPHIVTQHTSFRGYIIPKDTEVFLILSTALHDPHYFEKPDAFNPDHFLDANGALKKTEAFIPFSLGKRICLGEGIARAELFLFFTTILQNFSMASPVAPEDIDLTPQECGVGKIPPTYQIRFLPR

CYP2C9 = CYP2C9 (Homo sapiens, UniProt P11712); assay: in vitro; settings: pooled human liver microsomes, pH 7.4, probe diclofenac
CYP2C19 [3] = molecular target: T4, CYP2C19 (Homo sapiens, UniProt P33261); assay: in vitro; settings: pooled human liver microsomes, pH 7.4, probe (S)-mephenytoin
CYP2C19 [4] = molecular target: T4, CYP2C19; assay: biochemical
CYP2D6 [5] = molecular target: T2, CYP2D6; assay: biochemical
CYP1A2 = molecular target: T5, CYP1A2 (Homo sapiens, UniProt P05177); assay: Direct inhibition of CYP1A2 (phenacetin) in human liver microsomes
T5 sequence (P05177 1-516): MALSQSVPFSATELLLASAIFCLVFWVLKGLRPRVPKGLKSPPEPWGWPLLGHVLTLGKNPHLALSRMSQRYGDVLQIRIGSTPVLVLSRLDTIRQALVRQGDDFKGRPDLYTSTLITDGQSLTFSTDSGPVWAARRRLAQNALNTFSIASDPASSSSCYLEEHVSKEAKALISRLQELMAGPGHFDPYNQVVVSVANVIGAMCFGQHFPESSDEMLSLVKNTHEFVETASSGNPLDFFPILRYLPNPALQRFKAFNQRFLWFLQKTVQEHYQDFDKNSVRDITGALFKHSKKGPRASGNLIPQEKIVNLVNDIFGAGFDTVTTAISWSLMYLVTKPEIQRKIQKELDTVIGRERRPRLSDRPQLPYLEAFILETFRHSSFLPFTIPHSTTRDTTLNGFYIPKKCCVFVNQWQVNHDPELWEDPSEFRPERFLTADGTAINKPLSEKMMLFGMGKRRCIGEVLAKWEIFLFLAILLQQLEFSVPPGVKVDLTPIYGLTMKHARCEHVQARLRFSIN

Sequence of CYP3A4 (P08684 2-503): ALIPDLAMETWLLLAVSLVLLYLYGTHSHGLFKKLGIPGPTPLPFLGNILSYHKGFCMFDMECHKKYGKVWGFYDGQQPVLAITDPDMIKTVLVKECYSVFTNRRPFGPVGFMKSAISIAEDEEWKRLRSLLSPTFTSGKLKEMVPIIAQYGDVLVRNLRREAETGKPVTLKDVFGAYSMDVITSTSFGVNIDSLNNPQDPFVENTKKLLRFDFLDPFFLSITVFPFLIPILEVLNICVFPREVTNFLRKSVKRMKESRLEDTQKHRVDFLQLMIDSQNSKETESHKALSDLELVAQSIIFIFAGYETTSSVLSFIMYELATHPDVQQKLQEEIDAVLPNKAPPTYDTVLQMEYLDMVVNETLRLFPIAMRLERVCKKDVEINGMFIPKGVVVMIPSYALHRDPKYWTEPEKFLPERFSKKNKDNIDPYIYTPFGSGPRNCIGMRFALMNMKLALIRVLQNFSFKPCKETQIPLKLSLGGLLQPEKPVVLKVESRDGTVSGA
T2 sequence (P10635 whole entry): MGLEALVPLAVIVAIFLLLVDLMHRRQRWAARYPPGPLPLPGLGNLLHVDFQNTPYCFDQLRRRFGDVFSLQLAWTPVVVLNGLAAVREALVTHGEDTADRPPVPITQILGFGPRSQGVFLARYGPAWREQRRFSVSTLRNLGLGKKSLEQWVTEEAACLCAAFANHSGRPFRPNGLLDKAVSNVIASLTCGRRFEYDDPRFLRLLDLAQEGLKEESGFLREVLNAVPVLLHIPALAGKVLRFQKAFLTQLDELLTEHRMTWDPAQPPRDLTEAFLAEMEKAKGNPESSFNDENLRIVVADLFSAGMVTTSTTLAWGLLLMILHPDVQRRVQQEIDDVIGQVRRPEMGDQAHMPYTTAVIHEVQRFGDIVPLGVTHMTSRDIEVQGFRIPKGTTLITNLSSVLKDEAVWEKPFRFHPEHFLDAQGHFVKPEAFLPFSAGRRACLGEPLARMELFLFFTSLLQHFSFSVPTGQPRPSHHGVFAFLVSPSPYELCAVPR
T4 sequence (P33261 whole entry): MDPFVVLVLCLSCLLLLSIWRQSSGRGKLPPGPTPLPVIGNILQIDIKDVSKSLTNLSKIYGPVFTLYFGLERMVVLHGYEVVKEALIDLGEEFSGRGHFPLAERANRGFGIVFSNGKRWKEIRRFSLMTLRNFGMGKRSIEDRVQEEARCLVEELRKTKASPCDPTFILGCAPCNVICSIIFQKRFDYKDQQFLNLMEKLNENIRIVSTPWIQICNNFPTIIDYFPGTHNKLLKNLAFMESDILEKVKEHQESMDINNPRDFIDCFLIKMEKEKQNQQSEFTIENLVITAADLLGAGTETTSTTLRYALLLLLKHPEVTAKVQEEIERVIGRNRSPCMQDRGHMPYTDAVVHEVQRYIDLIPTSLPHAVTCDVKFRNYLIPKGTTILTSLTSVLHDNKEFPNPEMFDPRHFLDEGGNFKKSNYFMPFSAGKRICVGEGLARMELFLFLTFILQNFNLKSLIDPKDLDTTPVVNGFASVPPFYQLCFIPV
Sequence of CYP2C9 (P11712 whole entry): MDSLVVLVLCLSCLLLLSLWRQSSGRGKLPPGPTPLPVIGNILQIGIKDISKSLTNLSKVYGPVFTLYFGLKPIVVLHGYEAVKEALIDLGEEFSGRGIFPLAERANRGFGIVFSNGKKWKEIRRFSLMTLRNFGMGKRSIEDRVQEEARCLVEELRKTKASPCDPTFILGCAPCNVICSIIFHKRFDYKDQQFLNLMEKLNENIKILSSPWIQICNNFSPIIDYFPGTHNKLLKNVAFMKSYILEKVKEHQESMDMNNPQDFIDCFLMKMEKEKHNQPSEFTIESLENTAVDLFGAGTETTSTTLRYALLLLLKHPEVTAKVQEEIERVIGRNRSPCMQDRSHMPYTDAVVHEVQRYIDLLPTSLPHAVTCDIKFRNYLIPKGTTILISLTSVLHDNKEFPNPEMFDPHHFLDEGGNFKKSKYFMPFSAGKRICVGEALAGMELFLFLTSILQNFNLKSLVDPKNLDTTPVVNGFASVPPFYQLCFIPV

Cc1cn2nc(-c3cc(=O)n4cc(N5CCNC6(CC6)C5)ccc4n3)cc(C)c2n1 [risdiplam, 7-(4,7-diazaspiro[2.5]octan-7-yl)-2-(2,8-dimethylimidazo[1,2-b]pyridazin-6-yl)pyrido[1,2-a]pyrimidin-4-one]
time-dependent inhibition (in words) (CYP2C8): did not show any significant reversible or time-dependent inhibition; also recorded: No significant reversible or time-dependent inhibition; also recorded: No significant time-dependent inhibition; also recorded: low potential to cause direct or time-dependent inhibition
time-dependent inhibition (in words) (CYP2D6 [1]): did not show any significant reversible or time-dependent inhibition; also recorded: No significant reversible or time-dependent inhibition; also recorded: No significant time-dependent inhibition; also recorded: low potential to cause direct or time-dependent inhibition
% Remaining (CYP3A4; CYP3A4-Midazolam, minus NADPH, risdiplam pre-incubation 0.10 μM): 88% and 103%
% Remaining (CYP3A4; CYP3A4-Midazolam, minus NADPH, risdiplam pre-incubation 0.20 μM): 99% and 103%
% Remaining (CYP3A4; CYP3A4-Midazolam, minus NADPH, risdiplam pre-incubation 0.50 μM): 99% and 108%
% Remaining (CYP3A4; CYP3A4-Midazolam, minus NADPH, risdiplam pre-incubation 1.3 μM): 99% and 110%
% Remaining (CYP3A4; CYP3A4-Midazolam, minus NADPH, risdiplam pre-incubation 3.2 μM): 99% and 100%
% Remaining (CYP3A4; CYP3A4-Midazolam, minus NADPH, risdiplam pre-incubation 8.0 μM): 95% and 106%
% Remaining (CYP3A4; CYP3A4-Midazolam, minus NADPH, risdiplam pre-incubation 12.5 μM): 115% and 108%
% Remaining (CYP3A4; CYP3A4-Midazolam, plus NADPH, risdiplam pre-incubation 0.10 μM): 101% and 105%
% Remaining (CYP3A4; CYP3A4-Midazolam, plus NADPH, risdiplam pre-incubation 0.20 μM): 101% and 109%
% Remaining (CYP3A4; CYP3A4-Midazolam, plus NADPH, risdiplam pre-incubation 0.50 μM): 94% and 109%
% Remaining (CYP3A4; CYP3A4-Midazolam, plus NADPH, risdiplam pre-incubation 1.3 μM): 90% and 96%
% Remaining (CYP3A4; CYP3A4-Midazolam, plus NADPH, risdiplam pre-incubation 3.2 μM): 60% and 64%
% Remaining (CYP3A4; CYP3A4-Midazolam, plus NADPH, risdiplam pre-incubation 8.0 μM): 28% and 30%
% Remaining (CYP3A4; CYP3A4-Midazolam, plus NADPH, risdiplam pre-incubation 12.5 μM): 22% and 21%
% Remaining (CYP3A4; CYP3A4-Testosterone, minus NADPH, risdiplam pre-incubation 0.10 μM): 101% and 99%
% Remaining (CYP3A4; CYP3A4-Testosterone, minus NADPH, risdiplam pre-incubation 0.20 μM): 94% and 93%
% Remaining (CYP3A4; CYP3A4-Testosterone, minus NADPH, risdiplam pre-incubation 0.50 μM): 100% and 93%
% Remaining (CYP3A4; CYP3A4-Testosterone, minus NADPH, risdiplam pre-incubation 1.3 μM): 102% and 95%
% Remaining (CYP3A4; CYP3A4-Testosterone, minus NADPH, risdiplam pre-incubation 3.2 μM): 93% and 102%
% Remaining (CYP3A4; CYP3A4-Testosterone, minus NADPH, risdiplam pre-incubation 8.0 μM): 90% and 88%
% Remaining (CYP3A4; CYP3A4-Testosterone, minus NADPH, risdiplam pre-incubation 12.5 μM): 89%
% Remaining (CYP3A4; CYP3A4-Testosterone, plus NADPH, risdiplam pre-incubation 0.10 μM): 97% and 95%
% Remaining (CYP3A4; CYP3A4-Testosterone, plus NADPH, risdiplam pre-incubation 0.20 μM): 98% and 93%
% Remaining (CYP3A4; CYP3A4-Testosterone, plus NADPH, risdiplam pre-incubation 0.50 μM): 94% and 92%
% Remaining (CYP3A4; CYP3A4-Testosterone, plus NADPH, risdiplam pre-incubation 1.3 μM): 90% and 85%
% Remaining (CYP3A4; CYP3A4-Testosterone, plus NADPH, risdiplam pre-incubation 3.2 μM): 63% and 62%
% Remaining (CYP3A4; CYP3A4-Testosterone, plus NADPH, risdiplam pre-incubation 8.0 μM): 23% and 24%
% Remaining (CYP3A4; CYP3A4-Testosterone, plus NADPH, risdiplam pre-incubation 12.5 μM): 13%
pIC50 (CYP3A4; pH 7.4, IC50, CYP3A4-Midazolam Inactivation, minus NADPH): < 4.90
pIC50 (CYP3A4; pH 7.4, IC50, CYP3A4-Midazolam Inactivation, plus NADPH): 5.32
pIC50 (CYP3A4; pH 7.4, IC50, CYP3A4-Testosterone Inactivation, minus NADPH): < 4.90
pIC50 (CYP3A4; pH 7.4, IC50, CYP3A4-Testosterone Inactivation, plus NADPH): 5.39
safety and tolerability (in words) ([2]; 5 mg risdiplam, more than 1 year of treatment, patients with SMA): safe and well tolerated
AUC ([2]; human, in vivo, SMA patients, steady state, read-out: mean AUCtau at steady state (therapeutic exposure observed in SMA patients)): 2000 ng·h/mL
activity (CYP2B6): 88%
activity (CYP2C9): 83%
activity (CYP2C19 [3]): 102%
pIC50 (CYP2C19 [4]): < 4.90
pIC50 (CYP2D6 [5]): < 4.90
% Control activity at (CYP1A2; direct inhibition, substrate Phenacetin, concentration not given, duplicates): 101%
reversible (direct) inhibition (in words) (CYP1A2; risdiplam up to 12.5 μM): did not show any significant reversible or time-dependent inhibition; also recorded: No significant reversible or time-dependent inhibition; also recorded: No significant reversible inhibition; also recorded: low potential to cause direct or time-dependent inhibition
